Test results: patent publication US7355042B2, “Treatment of CNS disorders using CNS target modulators” (Hypnion, Inc., priority 2001, dated 2008)
Where “and” joins values, the source holds several entries; their conditions need not be identical. Identical values can stand only once. Like-named read-outs stand apart in the source and are kept apart here.

What was measured:
[1] = test system: male Wistar rats; test: Sleep-wakefulness, locomotor activity and body temperature monitoring (SCORE-2000); assay type: in vivo, rat; conditions: for total sleep time post-treatment: 10 mg/kg PO at CT-18, versus methylcellulose vehicle; for body temperature adverse effects / disproportional locomotor inhibition: rats; for net longest sleep bout post treatment: adjusted using a baseline value at least 24 hours prior; for average sleep bout: at absolute peak; for nonREM peak time value: by the third hour after administration; for cumulative total increase in nonREM sleep: doses that produce maximum sleep consolidation
[2] = biological target: T1, H1 receptor from bovine cellular membranes (Bos taurus, UniProt P30546); test: H1 binding assay, [3H]pyrilamine displacement; conditions: for IC50: Table 6, Series 11, unit inferred
T1 construct: the H1 receptor was from bovine cellular membranes; from tissue

[3] = biological target: T2, human recombinant M1 muscarinic receptor expressed in CHO cells (Homo sapiens, UniProt P11229); test: M1 binding assay (human recombinant), [3H]-scopolamine N-methyl chloride
T2 construct: expressed in transfected cells; host or cells: CHO cells
T2 sequence (P11229 1-460): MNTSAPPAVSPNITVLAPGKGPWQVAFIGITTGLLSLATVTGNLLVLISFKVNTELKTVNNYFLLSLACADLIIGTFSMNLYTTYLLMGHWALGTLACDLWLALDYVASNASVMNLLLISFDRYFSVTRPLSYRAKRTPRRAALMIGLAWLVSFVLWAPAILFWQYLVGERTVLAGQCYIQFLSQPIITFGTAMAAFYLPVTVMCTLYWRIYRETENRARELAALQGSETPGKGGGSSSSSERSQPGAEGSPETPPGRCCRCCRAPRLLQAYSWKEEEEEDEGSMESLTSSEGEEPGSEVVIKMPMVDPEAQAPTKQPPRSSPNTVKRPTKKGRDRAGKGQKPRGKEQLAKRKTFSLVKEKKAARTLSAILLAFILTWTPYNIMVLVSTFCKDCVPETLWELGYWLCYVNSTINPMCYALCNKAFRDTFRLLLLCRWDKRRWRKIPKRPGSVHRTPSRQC

[4] = biological target: T3, human recombinant M3 muscarinic receptor expressed in CHO cells (Homo sapiens, UniProt P20309); test: M3 binding assay (human recombinant)
T3 construct: expressed in transfected cells; host or cells: CHO cells

[5] = biological target: T4, human recombinant M2 muscarinic receptor expressed in CHO cells (Homo sapiens, UniProt P08172); test: M2 binding assay (human recombinant); conditions: Examples 15-17; unit inferred; read-out: binding affinity for cholinergic (muscarinic) receptor M2
T4 construct: expressed in transfected cells; host or cells: CHO cells
T4 sequence (P08172 1-466): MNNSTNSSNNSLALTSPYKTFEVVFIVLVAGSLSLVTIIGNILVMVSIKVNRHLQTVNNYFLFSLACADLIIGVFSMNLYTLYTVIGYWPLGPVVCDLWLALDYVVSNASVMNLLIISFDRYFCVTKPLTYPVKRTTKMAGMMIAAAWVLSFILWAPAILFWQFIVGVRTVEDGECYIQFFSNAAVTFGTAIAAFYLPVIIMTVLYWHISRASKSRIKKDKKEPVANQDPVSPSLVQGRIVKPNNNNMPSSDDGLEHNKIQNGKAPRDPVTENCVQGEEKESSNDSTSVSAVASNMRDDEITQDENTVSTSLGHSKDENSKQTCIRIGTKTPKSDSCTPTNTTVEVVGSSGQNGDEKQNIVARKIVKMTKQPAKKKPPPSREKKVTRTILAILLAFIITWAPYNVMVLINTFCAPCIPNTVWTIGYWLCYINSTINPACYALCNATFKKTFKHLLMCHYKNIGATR

[6] = test system: M3 receptor from guinea pig ileum membranes; conditions: read-out: Ki of reference compounds, M3 binding assay; cited from earlier work
[7] = 30 mg/kg and 10 mg/kg, intraperitoneal bolus at CT-18
[8] = intraperitoneal at CT-18, 11f 10 or 30 mg/kg, 6f and 15f 30 mg/kg
[9] = Examples 15-17, read-out: Ki, H1 binding assay
[10] = Examples 15-17, unit inferred, read-out: binding affinity for cholinergic (muscarinic) receptor M1
[11] = Examples 15-17, unit inferred, read-out: binding affinity for cholinergic (muscarinic) receptor M3
[12] = 10 mg/kg PO at CT-18, male Wistar rats

T1 sequence (P30546 whole entry): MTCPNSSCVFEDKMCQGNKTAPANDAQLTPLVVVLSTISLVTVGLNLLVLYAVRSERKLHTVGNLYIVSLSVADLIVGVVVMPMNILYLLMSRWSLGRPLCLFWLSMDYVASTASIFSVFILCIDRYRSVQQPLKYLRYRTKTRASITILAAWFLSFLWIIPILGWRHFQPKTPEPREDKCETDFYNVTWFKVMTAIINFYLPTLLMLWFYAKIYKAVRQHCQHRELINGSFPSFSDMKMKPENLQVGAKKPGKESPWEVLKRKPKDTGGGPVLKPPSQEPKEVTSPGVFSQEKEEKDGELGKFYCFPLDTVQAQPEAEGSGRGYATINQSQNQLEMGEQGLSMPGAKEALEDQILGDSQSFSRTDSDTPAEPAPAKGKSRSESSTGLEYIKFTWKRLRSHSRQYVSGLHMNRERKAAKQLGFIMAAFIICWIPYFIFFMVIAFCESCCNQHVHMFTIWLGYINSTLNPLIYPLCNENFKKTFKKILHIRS
T3 sequence (P20309 whole entry): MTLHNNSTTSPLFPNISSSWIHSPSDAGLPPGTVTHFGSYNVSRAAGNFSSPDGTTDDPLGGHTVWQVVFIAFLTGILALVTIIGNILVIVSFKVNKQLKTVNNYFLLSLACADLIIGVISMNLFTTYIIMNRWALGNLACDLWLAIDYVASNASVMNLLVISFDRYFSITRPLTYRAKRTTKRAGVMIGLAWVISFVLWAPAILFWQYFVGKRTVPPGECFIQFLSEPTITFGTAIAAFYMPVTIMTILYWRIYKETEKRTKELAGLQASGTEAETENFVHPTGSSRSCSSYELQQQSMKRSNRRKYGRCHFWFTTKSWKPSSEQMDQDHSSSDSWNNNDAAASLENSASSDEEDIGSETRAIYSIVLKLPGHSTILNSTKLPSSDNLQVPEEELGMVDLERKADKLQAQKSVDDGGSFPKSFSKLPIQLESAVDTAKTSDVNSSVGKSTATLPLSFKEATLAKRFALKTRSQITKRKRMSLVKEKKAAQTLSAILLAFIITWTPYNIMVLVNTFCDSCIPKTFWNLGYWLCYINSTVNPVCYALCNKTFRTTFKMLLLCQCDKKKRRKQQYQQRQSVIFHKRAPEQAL

## O=C(O)CCN1CCC(OC(c2ccccc2)c2ccccc2)CC1 [Compound 6a, 3-[4-(diphenylmethoxy)piperidin-1-yl]propanoic acid]
[1]; 30 mg/kg PO at CT-18
  Average Bout-Length: 7.0 min
  Duration: 5 h
  Maximum Bout Length: 12.8 min
  NREM Accum.: 26.5 min
  NREM Peak (%/hr): 56.4 %/hr
  Onset: 65 min

## O=C(O)CCN1CCC(=C(c2ccccc2)c2ccccc2)CC1 [Compound 11a]
[2]
  IC50: 0.308 µM
[1]; 30 mg/kg PO at CT-18
  Average Bout-Length: 11.2 min
  Duration: 6 h
  Maximum Bout Length: 18.7 min
  NREM Accum.: 41.2 min
  NREM Peak (%/hr): 67.3 %/hr
  Onset: 85 min

## CC(C)OC(=O)CCN1CCC(=C(c2ccccc2)c2ccccc2)CC1 [Compound 11d, Isopropyl 3-[4-(diphenylmethylidene)piperidin-1-yl]propanoate]
[2]
  IC50: 0.378 µM
[1]; 30 mg/kg PO at CT-18
  Average Bout-Length: 11.0 min
  Duration: 6 h
  Maximum Bout Length: 20.1 min
  NREM Accum.: 55.5 min
  NREM Peak (%/hr): 58.5 %/hr
  Onset: 135 min

## CC(C)COC(=O)CCN1CCC(=C(c2ccccc2)c2ccccc2)CC1 [Compound 11e, Isobutyl 3-[4-(diphenylmethylidene)piperidin-1-yl]propanoate]
[2]
  IC50: 0.718 µM
[1]; 30 mg/kg PO at CT-18
  Average Bout-Length: 8.3 min
  Duration: 6 h
  Maximum Bout Length: 19.1 min
  NREM Accum.: 49.6 min
  NREM Peak (%/hr): 59.6 %/hr
  Onset: 80 min

## O=C(CCN1CCC(=C(c2ccccc2)c2ccccc2)CC1)OC1CCCC1 [Compound 11f, Cyclopentyl 3-[4-(diphenylmethylidene)piperidin-1-yl]propanoate]
[2]
  IC50: 1.07 µM
[1]; 30 mg/kg IP versus Zolpidem 10 mg/kg
  cumulative effect on total sleep time (TST) during the initial 5 hours post-treatment, relative to baseline: induced more TST than Zolpidem
[1]; [7]
  sleep continuity, as assessed by sleep bout length: increased sleep continuity
  time post-treatment over which total sleep time was increased: 3 h
  total sleep time: significantly increased total sleep time
[1]; [8]
  REM sleep inhibition: did not, however, produce REM sleep inhibition or rebound insomnia
  rebound insomnia: did not, however, produce REM sleep inhibition or rebound insomnia

## O=C(O)CN1CCC(C(c2ccccc2)c2ccccc2)CC1 [Compound 16a, [4-(Diphenylmethyl)piperidin-1-yl]ethanoic acid]
[2]; Receptor Binding Data (Ki nM) H1, Table 7
  Ki: 43.9 nM
[3]; Table 7, human recombinant, read-out: Receptor Binding Data (Ki nM) M1
  Ki: > 10000 nM
[4]
  Ki: > 10 µM
[1]; 30 mg/kg PO at CT-18
  Average Bout-Length: 5.4 min
  Duration: 5 h
  Maximum Bout Length: 11.8 min
  NREM Accum.: 20.7 min
  NREM Peak (%/hr): 57.9 %/hr
  Onset: 180 min

## Cl.O=C(O)CCCN1CCC(OC(c2ccccc2)c2ccccc2)CC1 [Compound 53a]
[1]; 30 mg/kg PO at CT-18
  Average Bout-Length: 4.3 min
  Duration: 4 h
  Maximum Bout Length: 9.1 min
  NREM Accum.: 17.4 min
  NREM Peak (%/hr): 49.2 %/hr
  Onset: 30 min

## O=C(O)CCCN1CCC(=C2c3ccccc3COc3ccccc32)CC1 [Compound 73a]
[1]; 30 mg/kg PO at CT-18
  Average Bout-Length: 14.5 min
  Duration (hrs): 5-6+ hrs
  Maximum Bout Length: 27.6 min
  NREM Accum.: 47.3 min
  NREM Peak (%/hr): 62.2 %/hr
  Onset: 45 min

## CC(C)(CN1CCC(=C2c3ccccc3COc3ccccc32)CC1)C(=O)O [Compound 74a]
[1]; 30 mg/kg PO at CT-18
  Average Bout-Length: 9.9 min
  Duration: 5 to 6 h
  Maximum Bout Length: 22.3 min
  NREM Accum.: 43.4 min
  NREM Peak (%/hr): 64.4 %/hr
  Onset: 70 to 80 min

## CC(C)(CCN1CCC(=C2c3ccccc3COc3ccccc32)CC1)C(=O)O [Compound 75a]
[1]; 30 mg/kg PO at CT-18
  Average Bout-Length: 6.8 min
  Duration: 4 h
  Maximum Bout Length: 13.6 min
  NREM Accum.: 33.9 min
  NREM Peak (%/hr): 58.8 %/hr
  Onset: 70 to 85 min
[1]; 45 mg/kg PO at CT-18
  Average Bout-Length: 10.8 min
  Duration: 5 h
  Maximum Bout Length: 19.4 min
  NREM Accum.: 33.9 min
  NREM Peak (%/hr): 58.2 %/hr
  Onset: 70 to 85 min

## CC(C)(CCN1CCN(C2=Nc3ccccc3Oc3ccc(Cl)cc32)CC1)C(=O)O [Compound SS1]
[2]; [9]
  Ki: 23.9 nM
[3]; [10]
  Ki: > 10000 nM
[5]
  Ki: > 10 µM
[4]; [11]
  Ki: > 10 µM
[1]; [12]
  sleep continuity, as assessed by sleep bout length: increased sleep continuity
[1]
  total sleep time post-treatment: significantly increased total sleep time
  body temperature adverse effects: no evidence of causing disproportional locomotor inhibition or body temperature adverse effects
  disproportional locomotor inhibition: no evidence of causing disproportional locomotor inhibition or body temperature adverse effects

## CC(C)(CN1CCN(C2=Nc3cc(Cl)ccc3Nc3ccccc32)CC1)C(=O)O [Compound SS2]
[2]; [9]
  Ki: 23.4 nM
[3]; [10]
  Ki: > 10000 nM
[5]
  Ki: > 10 µM
[4]; [11]
  Ki: > 10 µM
[1]; [12]
  sleep continuity, as assessed by sleep bout length: increased sleep continuity
[1]
  total sleep time post-treatment: significantly increased total sleep time
  body temperature adverse effects: no evidence of causing disproportional locomotor inhibition or body temperature adverse effects
  disproportional locomotor inhibition: no evidence of causing disproportional locomotor inhibition or body temperature adverse effects

## Cl.O=C(O)CCN1CCC(=C(c2ccccc2)c2ccccc2)CC1 [Compound U1]
[2]; [9]
  Ki: < 500 nM
[1]; [12]
  sleep continuity, as assessed by sleep bout length: increased sleep continuity
[1]
  total sleep time post-treatment: significantly increased total sleep time
  body temperature adverse effects: no evidence of causing disproportional locomotor inhibition or body temperature adverse effects
  disproportional locomotor inhibition: no evidence of causing disproportional locomotor inhibition or body temperature adverse effects
[1]; functional criteria list
  net longest sleep bout post treatment: greater than or equal to 3 minutes
  average sleep bout: greater than 5 minutes
  nonREM peak time value: greater than 55 % nonREM sleep per hour
  cumulative total increase in nonREM sleep: not less than 20 minutes
  REM sleep inhibition: does not appreciably inhibit REM sleep
  locomotor activity inhibition relative to the normal effects of sleep: does not disproportionately inhibit locomotor activity
  longest sleep bout: greater than 13 minutes
  rebound insomnia: does not produce appreciable amounts of rebound insomnia

## CC(C)(CN1CCC(N2c3ccccc3Sc3ccccc32)CC1)C(=O)O.Cl [Compound UU1]
[2]; [9]
  Ki: < 500 nM and 13.6 nM
[3]; [10]
  Ki: > 10000 nM
[5]
  Ki: > 10 µM
[4]; [11]
  Ki: > 10 µM
[1]; [12]
  sleep continuity, as assessed by sleep bout length: increased sleep continuity
[1]
  total sleep time post-treatment: significantly increased total sleep time
  body temperature adverse effects: no evidence of causing disproportional locomotor inhibition or body temperature adverse effects
  disproportional locomotor inhibition: no evidence of causing disproportional locomotor inhibition or body temperature adverse effects
[1]; functional criteria list
  net longest sleep bout post treatment: greater than or equal to 3 minutes
  average sleep bout: greater than 5 minutes
  nonREM peak time value: greater than 55 % nonREM sleep per hour
  cumulative total increase in nonREM sleep: not less than 20 minutes
  REM sleep inhibition: does not appreciably inhibit REM sleep
  locomotor activity inhibition relative to the normal effects of sleep: does not disproportionately inhibit locomotor activity
  longest sleep bout: greater than 13 minutes
  rebound insomnia: does not produce appreciable amounts of rebound insomnia

## O[Si](CCCN1CCCCC1)(c1ccccc1)C1CCCCC1 (centres unmarked) [HHSID]
[6]
  Ki: 0.281 µM
